These results are taken from patent US6656968B1, “(Z)-styryl acetoxyphenyl sulfides as cyclooxygenase inhibitors” (Temple University - Of the Commonwealth System of Higher …, priority 1999, dated 2003).

In assay [1] the target is T1, human recombinant COX-2 (Homo sapiens, UniProt P35354).
T1 construct: purchased Oxford Biomedical Research Inc
T1 sequence (P35354 18-604): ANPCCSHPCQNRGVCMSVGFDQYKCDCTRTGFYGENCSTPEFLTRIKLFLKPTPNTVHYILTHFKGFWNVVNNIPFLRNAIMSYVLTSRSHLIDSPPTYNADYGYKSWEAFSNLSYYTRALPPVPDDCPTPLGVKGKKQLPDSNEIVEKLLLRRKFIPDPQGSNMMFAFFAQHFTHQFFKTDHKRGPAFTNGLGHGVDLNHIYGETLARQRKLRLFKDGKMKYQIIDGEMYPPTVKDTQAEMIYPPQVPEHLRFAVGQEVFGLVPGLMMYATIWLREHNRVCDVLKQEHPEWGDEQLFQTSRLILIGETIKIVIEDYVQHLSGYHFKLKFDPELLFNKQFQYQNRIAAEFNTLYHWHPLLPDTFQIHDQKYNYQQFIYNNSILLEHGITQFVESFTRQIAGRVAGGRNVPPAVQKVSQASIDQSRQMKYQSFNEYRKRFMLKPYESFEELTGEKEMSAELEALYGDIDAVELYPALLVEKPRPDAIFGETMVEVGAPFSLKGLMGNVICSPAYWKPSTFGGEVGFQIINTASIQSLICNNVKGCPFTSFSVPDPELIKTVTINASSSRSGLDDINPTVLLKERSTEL
The assay is described as follows: Cyclooxygenase enzyme assay (TLC method), COX-2. It is filed as biochemical. As to conditions: human recombinant COX-2, preincubation 90-120 min, [1-14C]arachidonic acid 50 μM. As to the method:
The compounds of formula I are potent inhibitors of COX-2. […] The resulting radiolabeled prostanoid compounds, i.e., the products of COX-2 reaction with arachidonic acid, were quantified.
(§1) Cyclooxygenase activity of ovine COX-1 (Oxford Biomedical Research Inc.) and human recombinant COX-2 Oxford Biomedical Research Inc.) was assayed by a thin layer chromatography (TLC) method as follows. All inhibitors were dissolved in dimethyl sulfoxide to a stock solution of 5 mM. Human recombinant COX-2 (3 units) or ovine COX-1 (15 units) was incubated with inhibitors at several concentrations in a solution containing 100 mM Tris-HCl, pH7.8, 500 uM phenol and hematin for 90 to 120 minutes at room temperature (24° C.). In controls, equal volumes of DMSO without drug were added to the incubation mixture. After incubation for 90-120 minutes, [1-^14C]arachidonic acid (50 μM, 51 mCi/mmol) (DuPont NEN) was added and incubated at 37° C. for 2 minutes. The reaction was terminated by extraction with 1 ml of ethyl acetate. The ethyl acetate layer was transferred into a fresh tube and evaporated to dryness in a Speedvac vacuum dryer. The contents of the tubes were reconstituted in […] of ethyl acetate and spotted on a TLC plate (J. T. Baker, Phillipsburg, N.J.) and developed in a mobile phase containing chloroform/methanol (95:5) at4° C. Radiolabeled prostanoid compounds (the products of COX enzymatic reaction with radiolabeled arachidonic acid substrate) were quantitated with a radioactivity scanner (Fuji, Phosphorimager). The percentage of total products observed at different inhibitor concentrations was divided by the percentage of the products observed for protein samples pre incubated for the same time with DMSO.

Assay [2] addresses T2, ovine COX-1 (Ovis aries, UniProt P05979).
T2 construct: purchased Oxford Biomedical Research Inc
T2 sequence (P05979 25-600): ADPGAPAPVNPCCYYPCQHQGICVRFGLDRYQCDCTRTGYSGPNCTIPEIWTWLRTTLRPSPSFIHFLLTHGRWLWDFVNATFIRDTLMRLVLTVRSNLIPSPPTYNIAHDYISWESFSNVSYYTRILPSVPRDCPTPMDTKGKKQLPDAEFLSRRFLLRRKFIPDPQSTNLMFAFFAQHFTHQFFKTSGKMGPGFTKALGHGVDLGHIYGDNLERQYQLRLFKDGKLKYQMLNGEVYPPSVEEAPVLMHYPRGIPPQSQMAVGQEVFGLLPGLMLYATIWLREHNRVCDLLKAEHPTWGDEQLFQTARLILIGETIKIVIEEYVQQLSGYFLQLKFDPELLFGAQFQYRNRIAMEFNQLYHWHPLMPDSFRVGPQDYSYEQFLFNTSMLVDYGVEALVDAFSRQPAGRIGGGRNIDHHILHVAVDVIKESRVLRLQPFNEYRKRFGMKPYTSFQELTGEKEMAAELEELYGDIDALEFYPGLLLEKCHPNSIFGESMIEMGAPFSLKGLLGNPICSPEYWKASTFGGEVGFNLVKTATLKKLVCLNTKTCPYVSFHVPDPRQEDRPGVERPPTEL
The assay is described as follows: Cyclooxygenase enzyme assay (TLC method), COX-1. It is filed as biochemical. Particulars: ovine COX-1, preincubation 90-120 min, [1-14C]arachidonic acid 50 μM. As to the method: as §1

Assay [3] has as its system HT29 cells. The assay is described as follows: Soft agar assay, HT29 cells. Type of assay: cell-based, human. Particulars: HT29 in soft agar. As to the method: (§2) Z-styryl 2-acetoxyphenylsulfide (Example 1) was compared to the COX-2 inhibitor celecoxib in inhibiting the growth of HT29 cells in soft agar. HT29 cells are human colorectal carcinoma cells that overexpress COX-2. HT29 cells grow in soft agar and form tumors in nude mice. The soft agar assay was performed as follows. A layer of bottom agar ([…]) was placed onto 60 mm^2 tissue culture dishes. The tumor cells were trypsinized from normal growth flasks while in exponential growth. The cells were counted by using a hemacytometer and 1.0×10^5 cells were placed into the top agar mixture containing growth medium, […] and various concentrations of drugs. The concentration range was normally between 10 μM to 75 μM. The cells were not refed during the assay system; therefore, the cells were treated with one dose of the agents. The plates were stained 20 days later with a 0.05% (w/v) nitroblue tetrazolium solution (which stains only viable cells) for 48 hours. […] The same concentration of Z-styryl 2-acetoxyphenylsulfide had little affect on the growth of monolayer cells.

The test system of assay [4] is HT29 cells. The assay is described as follows: Growth of monolayer cells. It is filed as cell-based, human. As to conditions: same concentration (10 μM). As for the experimental part:
as §2

Assay [5] deals with DLD-1 cells. Put plainly: Soft agar assay, DLD-1 cells. It is filed as cell-based, human. As to conditions: DLD-1 in soft agar, highest concentration tested, versus untreated control cells (FIG. 1). As for the experimental part:
as §2
The same assay was carried out with DLD-1 cells. Like HT29, DLD-1 cells are human colorectal carcinoma cells that overexpress COX-2. They grow in soft agar and form tumors in nude mice. The results are shown in FIG. 1, the y-axis being the percent of cell colonies remaining in comparison to untreated control cells.

Structures are written as SMILES.

A word on the IC50: it is the concentration that gives 50% inhibition. For `CC(=O)Oc1ccccc1S/C=C\c1ccccc1Cl` [Example 3, Z-2-Chlorostyryl 2-acetoxyphenylsulfide], the 50% inhibitory concentration (IC50) in assay [1] was 250 nM; in assay [2], 4000 nM.
On the same counts, the results for `CC(=O)Oc1ccccc1S/C=C\c1ccc(F)cc1` [Example 2, Z-4-Fluorostyryl 2-acetoxyphenylsulfide] are 350 nM and 4500 nM.
On to `CC(=O)Oc1ccccc1S/C=C\c1ccccc1` [Example 1, Z-styryl 2-acetoxyphenylsulfide], for which the IC50 in assay [1] is 150 nM; in assay [2], 5000 nM. For the same molecule, the “inhibition of anchorage independent growth” value in assay [3] (lowest concentration tested (10 μM), one dose, stained 20 days later) is given as “completely inhibited”. In addition, the “concentrations at which plates were devoid of all staining cells” value in assay [3] (nitroblue tetrazolium stain (viable cells)) was “above 20 μM”. For the same molecule, the “effect on the growth of monolayer cells” value in assay [4] is given as “little affect”. Moreover, the “inhibition of cell colony growth” value in assay [5] is 100%.
Take `CC(=O)Oc1ccccc1S/C=C\c1ccc(Cl)cc1` [Example 4, Z-4-Chlorostyryl 2-acetoxyphenylsulfide]: the results for the IC50 in assay [1] and in assay [2] were 200 nM and 4000 nM, respectively.
`CC(=O)Oc1cccc(/C=C\Sc2ccccc2OC(C)=O)c1` [Example 10, Z-3-Acetoxystyryl 2-acetoxyphenylsulfide]: the IC50 came out at 700 nM in assay [1] and 2000 nM in assay [2].
